What was measured:
Formosan termites = assay: Foraging box bait matrix bioassay, NHA sodium salt (Example 1); type: in vivo, Coptotermes formosanus
Experimental: For bait matrices with a final concentrations of NHA sodium salt of either 250 ppm or 500 ppm, the following procedure was used. A total of 25 mg or 50 mg, respectively of the NHA sodium salt was weighed using a Mettler balance. The NHA sodium salt complex was placed into a 50 ml sterile screw cap conical tube (#62.547.004; Sarstedt, Newton, N.C.) and dissolved with 40 ml nutritive solution described in Example 2 of U.S. patent application Ser. No. 09/294,499 filed Apr. 20, 1999, hereby incorporated by reference. Under a laminar flow hood, this product was mixed with 27 ml more of sterile nutritional supplement in a 250 ml sterile glass bottle (prepared as reported by M. G. Rojas and J. A. Morales-Ramos, April 2001, “Bait matrix for delivery of chitin synthesis inhibitors to the Formosan subterranean termite [Isoptera: Rhinotermitidae],” J. Econ. Entomol. 94(2) :506-510) hereby incorporated by reference. The bottle was tightly closed with a screw cap and manually shaken for 2 minutes. The mixture was added to 33 g of sterile cellulose as reported by Rojas and Morales-Ramos (2001) supra. The mixture was manually homogenized using a stainless steel spatula. To encase the bait matrix, tubes made of fibrous casing material (#124B; L.E.M. Products, Inc., Miamitown, Ohio) were cut into 150 mm long portions as reported by Rojas and Morales-Ramos (2001) supra. Fifty grams of bait matrix containing NHA sodium salt was compacted into one end of the inlet tube, and the open end and of the inlet tube was closed with a rubber band. The bait casing was placed inside of the foraging box adjacent to a 10 g piece of pine wood, taking care that it was partially covered with sand. Control bait matrix was prepared minus NHA, and presented in the same way as the treatment matrix to Formosan termites taken from three different colonies, with two boxes per locality totaling six boxes of 2500 termites per treatment. (Rojas and Morales-Ramos [2001] supra). All the experimental boxes were maintained under dark conditions at 27±1° C., and 90±2% relative humidity. Observations were done every 72 hours until all the termites died. The time to reach 100% mortality was measured and recorded. Mean comparisons among treatments and control were conducted.

Reticulitermes spp. = assay: Field evaluation of bait matrix-NHA in underground Exterra bait stations, Past Christian, Mississippi; type: in vivo, Reticulitermes flavipes
Experimental: Underground Exterra bait stations (Ensystex, Fayetteville, N.C.) were placed according to manufacturer directions around 20 houses in a heavily Reticulitermes spp. infested neighborhood surrounded by mainly pine forest in Past Christian, Miss. The stations were placed, approximately 20 feet apart and 5 feet away from the outside wall of the house. Monthly inspections were conducted to determine termite activity. Once termites were found in the station, 150 g of the ARS bait matrix (see Example 2) containing 250 ppm NHA was placed in the station for the first year of the experiment. The dose was increased in the second year to 500 ppm because of the constant movement of termites from the forest area to the stations. The bait matrix-NHA was prepared as above and exposed to the termites contained in the Exterra bait station, consecutively monthly inspections were conducted and bait matrix-NHA was added as required. Data on bait consumption, temperature of the soil and time to kill the colony was recorded. Reticulitermes flavipes were very abundant in the study site. The distribution of the infestation was in patches. For the typical infested house, termites were found in 3 of 6 stations. For this type of environmental setting, 600 g of bait matrix which is equivalent to 240 mg of NHA was required to kill the colony. It took about 9 months (from September-May) for the bait matrix to show its effectiveness which was evaluated by the presence of dead termites on the surface of the bait matrix container and interceptors.

[1] = date 01/29 (17th of 18, second winter)
[2] = date 02/26 (18th of 18, second winter)
[3] = typical infested house, termites in 3 of 6 stations

Q: For O=C1c2cccc3cccc(c23)C(=O)N1O [NHA, N-hydroxynaphthalimide], which “acceptability of the bait” value (Formosan termites; NHA >500 ppm) is on record?
A: reduced

Q: And the “time some termite colonies required to start feeding on the bait” value (Formosan termites; NHA >500 ppm)?
A: more than 8 hours

Q: And the “time to mortality of a 2,500-worker colony” value (Formosan termites; depending on the health and age of the colony)?
A: about 3 weeks

Q: And the “NHA concentration at which consumption is almost non existent” value (Formosan termites; in vivo)?
A: above 20,000 ppm

Q: What about the “NHA concentration at which the bait becomes unpalatable” value (Formosan termites; in vivo) of the same compound?
A: above 10,000 ppm

Q: And the “time for the bait matrix to show its effectiveness (dead termites on bait container and interceptors)” value (Reticulitermes spp.; September-May)?
A: about 9 months

Q: And the “Active Stations Number” value (Reticulitermes spp.; date 01/29 (5th of 18))?
A: 6

Q: What about the “Active Stations Percentage” value (Reticulitermes spp.; date 01/29 (5th of 18)) of the same compound?
A: 24.0%

Q: What about the “Bait (Cum. weight in g) Consumed” value (Reticulitermes spp.; date 01/29 (5th of 18)) of the same compound?
A: 1,500 g

Q: What about the “Active Stations Number” value (Reticulitermes spp.; [1]) of the same compound?
A: 11

Q: And the “Active Stations Percentage” value (Reticulitermes spp.; [1])?
A: 24.4%

Q: What about the “Bait (Cum. weight in g) Consumed” value (Reticulitermes spp.; [1]) of the same compound?
A: 11,850 g

Q: What about the “Active Stations Number” value (Reticulitermes spp.; date 02/26 (6th of 18)) of the same compound?
A: 12

Q: And the “Active Stations Percentage” value (Reticulitermes spp.; date 02/26 (6th of 18))?
A: 50.0%

Q: What about the “Bait (Cum. weight in g) Consumed” value (Reticulitermes spp.; date 02/26 (6th of 18)) of the same compound?
A: 1,500 g

Q: And the “Active Stations Number” value (Reticulitermes spp.; [2])?
A: 15

Q: And the “Active Stations Percentage” value (Reticulitermes spp.; [2])?
A: 33.3%

Q: And the “Bait (Cum. weight in g) Consumed” value (Reticulitermes spp.; [2])?
A: 12,600 g

Q: What about the “Active Stations Number” value (Reticulitermes spp.; date 03/27 (7th of 18)) of the same compound?
A: 13

Q: And the “Active Stations Percentage” value (Reticulitermes spp.; date 03/27 (7th of 18))?
A: 56.5%

Q: What about the “Bait (Cum. weight in g) Consumed” value (Reticulitermes spp.; date 03/27 (7th of 18)) of the same compound?
A: 1,500 g

Q: And the “Active Stations Number” value (Reticulitermes spp.; date 05/01 (8th of 18))?
A: 16

Q: What about the “Active Stations Percentage” value (Reticulitermes spp.; date 05/01 (8th of 18)) of the same compound?
A: 55.2%

Q: And the “Bait (Cum. weight in g) Consumed” value (Reticulitermes spp.; date 05/01 (8th of 18))?
A: 3,150 g

Q: And the “Active Stations Number” value (Reticulitermes spp.; date 05/29 (9th of 18))?
A: 11

Q: What about the “Active Stations Percentage” value (Reticulitermes spp.; date 05/29 (9th of 18)) of the same compound?
A: 36.7%

Q: What about the “Bait (Cum. weight in g) Consumed” value (Reticulitermes spp.; date 05/29 (9th of 18)) of the same compound?
A: 3,750 g

Q: What about the “Active Stations Number” value (Reticulitermes spp.; date 06/26 (10th of 18)) of the same compound?
A: 16

Q: And the “Active Stations Percentage” value (Reticulitermes spp.; date 06/26 (10th of 18))?
A: 50.0%

Q: And the “Bait (Cum. weight in g) Consumed” value (Reticulitermes spp.; date 06/26 (10th of 18))?
A: 4,800 g

Q: What about the “Active Stations Number” value (Reticulitermes spp.; date 07/31 (11th of 18)) of the same compound?
A: 12

Q: What about the “Active Stations Percentage” value (Reticulitermes spp.; date 07/31 (11th of 18)) of the same compound?
A: 33.3%

Q: And the “Bait (Cum. weight in g) Consumed” value (Reticulitermes spp.; date 07/31 (11th of 18))?
A: 6,000 g

Q: And the “Active Stations Number” value (Reticulitermes spp.; date 08/28 (12th of 18))?
A: 17

Q: And the “Active Stations Percentage” value (Reticulitermes spp.; date 08/28 (12th of 18))?
A: 47.2%

Q: What about the “Bait (Cum. weight in g) Consumed” value (Reticulitermes spp.; date 08/28 (12th of 18)) of the same compound?
A: 7,200 g

Q: And the “Active Stations Number” value (Reticulitermes spp.; date 09/25 (13th of 18))?
A: 21

Q: What about the “Active Stations Percentage” value (Reticulitermes spp.; date 09/25 (13th of 18)) of the same compound?
A: 52.5%

Q: And the “Bait (Cum. weight in g) Consumed” value (Reticulitermes spp.; date 09/25 (13th of 18))?
A: 7,950 g

Q: And the “Active Stations Number” value (Reticulitermes spp.; date 09/26 (1st of 18), NHA 250 ppm first year, 500 ppm second year)?
A: 22

Q: What about the “Bait (Cum. weight in g) Consumed” value (Reticulitermes spp.; date 09/26 (1st of 18), from fully consumed bait bags) of the same compound?
A: 0.0 g

Q: What about the “Active Stations Percentage” value (Reticulitermes spp.; date 09/26 (1st of 18), of cumulative stations ever active) of the same compound?
A: 95.7%

Q: What about the “Active Stations Number” value (Reticulitermes spp.; date 10/27 (2nd of 18)) of the same compound?
A: 10

Q: And the “Active Stations Percentage” value (Reticulitermes spp.; date 10/27 (2nd of 18))?
A: 43.5%

Q: What about the “Bait (Cum. weight in g) Consumed” value (Reticulitermes spp.; date 10/27 (2nd of 18)) of the same compound?
A: 600 g

Q: What about the “Active Stations Number” value (Reticulitermes spp.; date 11/02 (14th of 18)) of the same compound?
A: 18

Q: And the “Active Stations Percentage” value (Reticulitermes spp.; date 11/02 (14th of 18))?
A: 42.9%

Q: What about the “Bait (Cum. weight in g) Consumed” value (Reticulitermes spp.; date 11/02 (14th of 18)) of the same compound?
A: 10,800 g

Q: And the “Active Stations Number” value (Reticulitermes spp.; date 11/20 (3rd of 18))?
A: 10

Q: And the “Active Stations Percentage” value (Reticulitermes spp.; date 11/20 (3rd of 18))?
A: 41.7%

Q: And the “Bait (Cum. weight in g) Consumed” value (Reticulitermes spp.; date 11/20 (3rd of 18))?
A: 1,200 g

Q: And the “Active Stations Number” value (Reticulitermes spp.; date 11/27 (15th of 18))?
A: 13

Q: What about the “Active Stations Percentage” value (Reticulitermes spp.; date 11/27 (15th of 18)) of the same compound?
A: 28.9%

Q: And the “Bait (Cum. weight in g) Consumed” value (Reticulitermes spp.; date 11/27 (15th of 18))?
A: 11,250 g

Q: What about the “Active Stations Number” value (Reticulitermes spp.; date 12/18 (4th of 18)) of the same compound?
A: 8

Q: And the “Active Stations Percentage” value (Reticulitermes spp.; date 12/18 (4th of 18))?
A: 33.3%

Q: And the “Bait (Cum. weight in g) Consumed” value (Reticulitermes spp.; date 12/18 (4th of 18))?
A: 1,500 g

Q: What about the “Active Stations Number” value (Reticulitermes spp.; date 12/29 (16th of 18)) of the same compound?
A: 13

Q: What about the “Active Stations Percentage” value (Reticulitermes spp.; date 12/29 (16th of 18)) of the same compound?
A: 28.9%

Q: What about the “Bait (Cum. weight in g) Consumed” value (Reticulitermes spp.; date 12/29 (16th of 18)) of the same compound?
A: 11,850 g

Q: And the “NHA required to kill the colony (equivalent of bait matrix)” value (Reticulitermes spp.; [3])?
A: 240 mg

Q: And the “bait matrix required to kill the colony” value (Reticulitermes spp.; [3])?
A: 600 g

From USRE44543E1, “Naphthalenic compounds as termite bait toxicants” (priority 2002, dated 2013)
